Laboratory results reported in patent US8350079B2, “Treprostinil formulation” (United Therapeutics Corporation, priority 2008, dated 2013).

Columns and labels:
[1] = Accelerated stability of treprostinil monohydrate at 25, 30 and 40° C. (Lot #01M07033); assay type: physicochemical
Method: III. Accelerated Stability Data at 30 and 40° C. (Lot #01M07033).
In the present experiment, 500 mg Treprostinil monohydrate samples were stored in Nalgene 125 ml, HDPE bottles. The experimental procedure used in this experiment was the same as the described above procedure for lot D-1007-089.

[2] = Stability tests of treprostinil forms (dimer formation, room temperature stability); assay type: physicochemical; conditions: room temperature
Method: The anhydrous form of treprostinil (TREPROSTINIL) has been previously described, e.g., in J. Org. Chem. 2004, 69, 1890-1902. […] A larger amount of dimers can form at higher temperatures. However, dimer formation is negligible at 5° C. Therefore, anhydrous treprostinil must be refrigerated for storage and transport. In the past, treprostinil had to be refrigerated and shipped with ice packs to maintain low (2° C.-8° C.) temperatures.
The instability of anhydrous treprostinil also imposes challenges to its preparation. To obtain anhydrous treprostinil, wet compound from recrystallization was heated in a vacuum. […] Therefore, heating temperature must be carefully controlled to avoid high heat when drying treprostinil in order to remove all water, otherwise these two dimer impurities will be produced.
Data has been generated to characterize a monohydrate form of treprostinil. […] Treprostinil monohydrate can be stored and shipped with no special handling.

3AU90 ([1]; 3-Months, 25° C./60% RH): <0.05% | 750W93 ([1]; 3-Months, 25° C./60% RH): 0.07% | 751W93 ([1]; 3-Months, 25° C./60% RH): <0.05% | Impurity 1 (RRT: 0.58) ([1]; 3-Months, 25° C./60% RH): 0.05% | Total impurities ([1]; 3-Months, 25° C./60% RH): 0.4% | UT-15 Assay ([1]; 3-Months, 25° C./60% RH): 99.5% | UT-15 Ethyl Ester ([1]; 3-Months, 25° C./60% RH): 0.2% | Water, KF ([1]; 3-Months, 25° C./60% RH): 4.8% | 3AU90 ([1]; 3-Months, 30° C./65% RH): <0.05% | 750W93 ([1]; 3-Months, 30° C./65% RH): 0.07% | 751W93 ([1]; 3-Months, 30° C./65% RH): <0.05% | Impurity 1 (RRT: 0.58) ([1]; 3-Months, 30° C./65% RH): 0.05% | Total impurities ([1]; 3-Months, 30° C./65% RH): 0.4% | UT-15 Assay ([1]; 3-Months, 30° C./65% RH): 99.5% | UT-15 Ethyl Ester ([1]; 3-Months, 30° C./65% RH): 0.2% | Water, KF ([1]; 3-Months, 30° C./65% RH): 4.8% | 3AU90 ([1]; 3-Months, 40 C./75% RH): <0.05% | 750W93 ([1]; 3-Months, 40 C./75% RH): 0.08% | 751W93 ([1]; 3-Months, 40 C./75% RH): <0.05% | Impurity 1 (RRT: 0.58) ([1]; 3-Months, 40 C./75% RH): 0.05% | Total impurities ([1]; 3-Months, 40 C./75% RH): 0.4% | UT-15 Assay ([1]; 3-Months, 40 C./75% RH): 99.4% | UT-15 Ethyl Ester ([1]; 3-Months, 40 C./75% RH): 0.2% | Water, KF ([1]; 3-Months, 40 C./75% RH): 4.8% | 3AU90 ([1]; 6-Months, 25° C./60% RH): 0.06% | 750W93 ([1]; 6-Months, 25° C./60% RH): 0.07% | 751W93 ([1]; 6-Months, 25° C./60% RH): <0.05% | Total impurities ([1]; 6-Months, 25° C./60% RH): 0.4% | UT-15 Assay ([1]; 6-Months, 25° C./60% RH): 99.0% | UT-15 Ethyl Ester ([1]; 6-Months, 25° C./60% RH): 0.2% | Water, KF ([1]; 6-Months, 25° C./60% RH): 4.7% | 3AU90 ([1]; 6-Months, 30° C./65% RH): 0.06% | 750W93 ([1]; 6-Months, 30° C./65% RH): 0.07% | 751W93 ([1]; 6-Months, 30° C./65% RH): <0.05% | Total impurities ([1]; 6-Months, 30° C./65% RH): 0.4% | UT-15 Assay ([1]; 6-Months, 30° C./65% RH): 99.1% | UT-15 Ethyl Ester ([1]; 6-Months, 30° C./65% RH): 0.2% | Water, KF ([1]; 6-Months, 30° C./65% RH): 4.7% | 3AU90 ([1]; 6-Months, 40 C./75% RH): 0.07% | 750W93 ([1]; 6-Months, 40 C./75% RH): 0.09% | 751W93 ([1]; 6-Months, 40 C./75% RH): 0.05% | Total impurities ([1]; 6-Months, 40 C./75% RH): 0.4% | UT-15 Assay ([1]; 6-Months, 40 C./75% RH): 99.7% | UT-15 Ethyl Ester ([1]; 6-Months, 40 C./75% RH): 0.2% | Water, KF ([1]; 6-Months, 40 C./75% RH): 4.7% | 3AU90 ([1]; 12-Months, 25° C./60% RH): <0.05% | 750W93 ([1]; 12-Months, 25° C./60% RH): 0.08% | 751W93 ([1]; 12-Months, 25° C./60% RH): <0.05% | Impurity 1 (RRT: 0.58) ([1]; 12-Months, 25° C./60% RH): 0.06% | Total impurities ([1]; 12-Months, 25° C./60% RH): 0.4% | UT-15 Assay ([1]; 12-Months, 25° C./60% RH): 99.8% | UT-15 Ethyl Ester ([1]; 12-Months, 25° C./60% RH): 0.2% | Water, KF ([1]; 12-Months, 25° C./60% RH): 4.7% | 3AU90 ([1]; 12-Months, 40 C./75% RH): <0.05% | 750W93 ([1]; 12-Months, 40 C./75% RH): 0.09% | 751W93 ([1]; 12-Months, 40 C./75% RH): 0.05% | Impurity 1 (RRT: 0.58) ([1]; 12-Months, 40 C./75% RH): 0.05% | Total impurities ([1]; 12-Months, 40 C./75% RH): 0.4% | UT-15 Assay ([1]; 12-Months, 40 C./75% RH): 98.6% | UT-15 Ethyl Ester ([1]; 12-Months, 40 C./75% RH): 0.2% | Water, KF ([1]; 12-Months, 40 C./75% RH): 4.8% | 3AU90 ([1]; Initial): 0.1% | 750W93 ([1]; Initial): 0.08% | 751W93 ([1]; Initial): <0.05% | Total impurities ([1]; Initial): 0.4% | UT-15 Assay ([1]; Initial): 98.7% | UT-15 Ethyl Ester ([1]; Initial): 0.2% | Water, KF ([1]; Initial): 4.5% | Stability at room temperature [2]: stable at room temperature
Compound: CCCCC[C@H](O)CC[C@@H]1[C@H]2Cc3cccc(OCC(=O)O)c3C[C@H]2C[C@H]1O [TREPROSTINIL Lot# D-1007-089, treprostinil monohydrate]
